Patent US12220466B2, “Pharmaceutical formulation” (Cutting Edge Technology, LLC, priority 2016, dated 2025)

Legend:
[1] = system: spirochetes and motile rods in subgingival plaques; conditions: up to 12 weeks; cited from earlier work
pocket epithelium [2] = conditions: monkey, in vivo; cited from earlier work
[3] = system: gram-negative anaerobes and spirochetes; conditions: cited from earlier work
pocket epithelium [4] = conditions: cited from earlier work
periodontitis = test: Extensive in vivo administration of viscous tetracycline and 10% carbamide peroxide gel with mechanical debridement (Phase I-III)
Description: Each of the subjects had up to 6 or more recorded pocket sites, which can have up to 32 teeth and other parameters of periodontal disease recordings as well as health recordings in their patient records.
During Phase I treatments of periodontitis, a gel solution including 10% carbamide peroxide was applied directly to the periodontal pocket and pocket areas immediately followed by or preceded by 30-600 mg or more of pure topical tetracycline in powder or paste form, also applied directly to the pocket and pocket treatment areas together with the gel solution. The gel solution and the tetracycline were also applied to teeth directly. Tetracycline was added at intervals throughout the treatment. Treatment was performed on pockets from 3 mm up to 10 mm and more.
When pocket tissue was swollen, the 10% carbamide peroxide penetrated the deep pocket under the gum. The 10% carbamide peroxide was in the form of a viscous gel and was applied to the wound site or pocket using a periodontal probe, for example, or using a curet or scaler. For example, one or two drops from a squeeze-bottle applicator was applied to the end of end of a curette tip or scaler or was applied with a periodontal pocket measuring probe. The peroxide gel was also applied under artificial teeth and implants, for example under restorative bridges such as pontic areas, whether with implants or natural teeth. […]

SMILES	percentages of spirochetes and motile rods versus scaling and root planing alone [1]	time to nearly complete healing without irreparable damage (pocket epithelium [2])	time to reformation of epithelial lining (pocket epithelium [2])	time to removal of most of the necrotic layer (pocket epithelium [2])	duration of the decrease ([3]; in vivo)	number of gram-negative anaerobes and spirochetes ([3]; patients under 18 years, no scaling and root planing)	time to restoration of epithelial lining (pocket epithelium [4]; in vivo)	removal of pocket epithelium (histological) (pocket epithelium [4]; one minute application, neutralization, six curette strokes)	in office patient complaints (periodontitis; in vivo)	allergic reaction with topical use (periodontitis; patient population)
OCl [sodium hypochlorite]	no difference at any time between therapies	11 days	3 days	16 h	30 to 90 days	significant decrease	7 days	complete removal of pocket epithelium with normal healing		
CN(C)[C@@H]1C(O)=C(C(N)=O)C(=O)[C@@]2(O)C(O)=C3C(=O)c4c(O)cccc4[C@@](C)(O)[C@H]3C[C@@H]12 [tetracycline]									to taste, not pain	No true allergic reaction
